Legend:
Test in all cases: cells
HCC2157 = assay type: functional, cell-based, Homo sapiens; settings: Homo sapiens, HCC2157;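 further: growth inhibition of the cancer cell line, read out as cell viability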
Description: SANGER: Inhibition of human HCC2157 cell growth in a cell viability assay.

Ramos-2G6-4C10 = assay type: functional, cell-based, Homo sapiens; settings: Homo sapiens, Ramos-2G6-4C10;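 further: growth inhibition of the cell line, measured by a cell viability read-out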
Description: SANGER: Inhibition of human Ramos-2G6-4C10 cell growth in a cell viability assay.

CCRF-CEM = assay type: functional, cell-based, Homo sapiens; settings: Homo sapiens, CCRF-CEM;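 further: inhibition of CCRF-CEM cell growth, measured by a cell viability assay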
Description: SANGER: Inhibition of human CCRF-CEM cell growth in a cell viability assay.

NOMO-1 = assay type: functional, cell-based, Homo sapiens; settings: Homo sapiens, NOMO-1;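 further: growth inhibition of human NOMO-1 cells measured by a cell viability assay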
Description: SANGER: Inhibition of human NOMO-1 cell growth in a cell viability assay.

NOS-1 = assay type: functional, cell-based, Homo sapiens; settings: Homo sapiens, NOS-1;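 further: growth inhibition of the human NOS-1 cell line, read out with a cell viability assay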
Description: SANGER: Inhibition of human NOS-1 cell growth in a cell viability assay.

ES6 = assay type: functional, cell-based; settings: Homo sapiens;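 further: growth inhibition of human ES6 cells, read out with a cell viability assay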
Description: SANGER: Inhibition of human ES6 cell growth in a cell viability assay.

SNU1 = assay type: functional, cell-based, Homo sapiens; settings: Homo sapiens, SNU1;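 further: growth inhibition of human NCI-SNU-1 cells, measured with a cell viability assay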
Description: SANGER: Inhibition of human NCI-SNU-1 cell growth in a cell viability assay.

LOX IMVI = assay type: functional, cell-based, Homo sapiens; settings: Homo sapiens, LOX IMVI
Description: SANGER: Inhibition of human LOXIMVI cell growth in a cell viability assay.

TE-9 = assay type: functional, cell-based, Homo sapiens; settings: Homo sapiens, TE-9;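 further: cell growth inhibition, measured with a cell viability readout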
Description: SANGER: Inhibition of human TE-9 cell growth in a cell viability assay.

QIMR-WIL = assay type: functional, cell-based, Homo sapiens; settings: Homo sapiens, QIMR-WIL;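 further: growth inhibition of QIMR-WIL cells, read out with a cell viability assay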
Description: SANGER: Inhibition of human QIMR-WIL cell growth in a cell viability assay.

KLE = assay type: functional, cell-based; settings: Homo sapiens;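 further: growth inhibition of human KLE cells, read out with a cell viability assay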
Description: SANGER: Inhibition of human KLE cell growth in a cell viability assay.

OS-RC-2 = assay type: functional, cell-based, Homo sapiens; settings: Homo sapiens, OS-RC-2;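 further: growth inhibition of human OS-RC-2 cells, measured by a cell viability assay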
Description: SANGER: Inhibition of human OS-RC-2 cell growth in a cell viability assay.

Mo = assay type: functional, cell-based, Homo sapiens; settings: Homo sapiens, Mo
Description: SANGER: Inhibition of human Mo-T cell growth in a cell viability assay.

TE-11 = assay type: functional, cell-based; settings: Homo sapiens;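 further: growth inhibition of human TE-11 cells, read out by a cell viability assay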
Description: SANGER: Inhibition of human TE-11 cell growth in a cell viability assay.

ES7 = assay type: functional, cell-based, Homo sapiens; settings: Homo sapiens, ES7;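 further: growth inhibition of cultured human ES7 cells, read out as cell viability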
Description: SANGER: Inhibition of human ES7 cell growth in a cell viability assay.

ES5 = assay type: functional, cell-based, Homo sapiens; settings: Homo sapiens, ES5;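 further: growth inhibition of human ES5 cells, read out by a cell viability assay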
Description: SANGER: Inhibition of human ES5 cell growth in a cell viability assay.

GB-1 = assay type: functional, cell-based, Homo sapiens; settings: Homo sapiens, GB-1;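 further: growth of GB-1 cells judged by a viability assay, IC50 marks the concentration inhibiting growth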
Description: SANGER: Inhibition of human GB-1 cell growth in a cell viability assay.

BV-173 = assay type: functional, cell-based, Homo sapiens; settings: Homo sapiens, BV-173
Description: SANGER: Inhibition of human BV-173 cell growth in a cell viability assay.

NCI-H747 = assay type: functional, cell-based, Homo sapiens; settings: Homo sapiens, NCI-H747;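 further: growth inhibition of human NCI-H747 cells, read out by a cell viability assay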
Description: SANGER: Inhibition of human NCI-H747 cell growth in a cell viability assay.

8-MG-BA = assay type: functional, cell-based, Homo sapiens; settings: Homo sapiens, 8-MG-BA;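 further: growth inhibition of 8-MG-BA cells, read out with a cell viability assay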
Description: SANGER: Inhibition of human 8-MG-BA cell growth in a cell viability assay.

MHH-NB-11 = assay type: functional, cell-based, Homo sapiens; settings: Homo sapiens, MHH-NB-11;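 further: growth inhibition of human MHH-NB-11 cells, read out by a cell viability assay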
Description: SANGER: Inhibition of human MHH-NB-11 cell growth in a cell viability assay.

D-263MG = assay type: functional, cell-based, Homo sapiens; settings: Homo sapiens, D-263MG
Description: SANGER: Inhibition of human D-263MG cell growth in a cell viability assay.

DSH1 = assay type: functional, cell-based; settings: Homo sapiens;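 further: growth inhibition of human DSH1 cells, measured with a cell viability readout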
Description: SANGER: Inhibition of human DSH1 cell growth in a cell viability assay.

LS-513 = assay type: functional, cell-based, Homo sapiens; settings: Homo sapiens, LS-513
Description: SANGER: Inhibition of human LS-513 cell growth in a cell viability assay.

EW-13 = assay type: functional, cell-based, Homo sapiens; settings: Homo sapiens, EW-13; read-out: IC50;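 further: growth inhibition of EW-13 cells, read out with a cell viability assay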
Description: SANGER: Inhibition of human EW-13 cell growth in a cell viability assay.

NCI-H1650 = assay type: functional, cell-based, Homo sapiens; settings: Homo sapiens, NCI-H1650;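 further: growth inhibition of human NCI-H1650 cells measured by a cell viability assay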
Description: SANGER: Inhibition of human NCI-H1650 cell growth in a cell viability assay.

JVM-3 = assay type: functional, cell-based, Homo sapiens; settings: Homo sapiens, JVM-3;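 further: growth inhibition of human JVM-3 cells, read out with a cell viability assay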
Description: SANGER: Inhibition of human JVM-3 cell growth in a cell viability assay.

SW872 = assay type: functional, cell-based, Homo sapiens; settings: Homo sapiens, SW872;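 further: growth inhibition of SW872 cells, read out by a viability assay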
Description: SANGER: Inhibition of human SW872 cell growth in a cell viability assay.

HH = assay type: functional, cell-based, Homo sapiens; settings: Homo sapiens, HH
Description: SANGER: Inhibition of human HH cell growth in a cell viability assay.

JVM-2 = assay type: functional, cell-based, Homo sapiens; settings: Homo sapiens, JVM-2;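 further: growth inhibition of JVM-2 cells determined by a cell viability assay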
Description: SANGER: Inhibition of human JVM-2 cell growth in a cell viability assay.

SF-539 = assay type: functional, cell-based, Homo sapiens; settings: Homo sapiens, SF-539;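 further: Read-out is a cell viability assay, with IC50 reflecting inhibition of cell growth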
Description: SANGER: Inhibition of human SF539 cell growth in a cell viability assay.

LB996-RCC = assay type: functional, cell-based, Homo sapiens; settings: Homo sapiens, LB996-RCC
Description: SANGER: Inhibition of human LB996-RCC cell growth in a cell viability assay.

COLO-320-HSR = assay type: functional, cell-based, Homo sapiens; settings: Homo sapiens, COLO-320-HSR;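 further: growth inhibition of COLO-320-HSR cells, determined with a cell viability assay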
Description: SANGER: Inhibition of human COLO-320-HSR cell growth in a cell viability assay.

ES8 = assay type: functional, cell-based, Homo sapiens; settings: Homo sapiens, ES8;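 further: growth inhibition of human ES8 cells, read out with a cell viability assay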
Description: SANGER: Inhibition of human ES8 cell growth in a cell viability assay.

MEG-01 = assay type: functional, cell-based, Homo sapiens; settings: Homo sapiens, MEG-01;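 further: growth inhibition of MEG-01 cells, read out by a cell viability assay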
Description: SANGER: Inhibition of human MEG-01 cell growth in a cell viability assay.

ML-2 = assay type: functional, cell-based, Homo sapiens; settings: Homo sapiens, ML-2;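 further: growth inhibition of ML-2 cells, measured with a cell viability readout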
Description: SANGER: Inhibition of human ML-2 cell growth in a cell viability assay.

HL-60 = assay type: functional, cell-based, Homo sapiens; settings: Homo sapiens, HL-60;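 further: growth inhibition of human HL-60 cells, read out with a cell viability assay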
Description: SANGER: Inhibition of human HL-60 cell growth in a cell viability assay.

TE-12 = assay type: functional, cell-based, Homo sapiens; settings: Homo sapiens, TE-12;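 further: growth inhibition of TE-12 cells, read out by a cell viability assay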
Description: SANGER: Inhibition of human TE-12 cell growth in a cell viability assay.

LU-134-A = assay type: functional, cell-based, Homo sapiens; settings: Homo sapiens, LU-134-A
Description: SANGER: Inhibition of human LU-134-A cell growth in a cell viability assay.

KG-1 = assay type: functional, cell-based, Homo sapiens; settings: Homo sapiens, KG-1;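 further: growth inhibition of KG-1 cells, read out by a cell viability assay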
Description: SANGER: Inhibition of human KG-1 cell growth in a cell viability assay.

MZ7-mel = assay type: functional, cell-based, Homo sapiens; settings: Homo sapiens, MZ7-mel;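 further: growth inhibition of human MZ7-mel cells, measured by a cell viability assay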
Description: SANGER: Inhibition of human MZ7-mel cell growth in a cell viability assay.

NCI-H226 = assay type: functional, cell-based, Homo sapiens; settings: Homo sapiens, NCI-H226;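 further: cell viability read-out used to gauge growth inhibition of the cells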
Description: SANGER: Inhibition of human NCI-H226 cell growth in a cell viability assay.

NH-12 = assay type: functional, cell-based, Homo sapiens; settings: Homo sapiens, NH-12;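 further: growth inhibition of NH-12 cells, read out with a cell viability assay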
Description: SANGER: Inhibition of human NH-12 cell growth in a cell viability assay.

KE-37 = assay type: functional, cell-based, Homo sapiens; settings: Homo sapiens, KE-37;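 further: growth inhibition of KE-37 cells, read out with a cell viability assay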
Description: SANGER: Inhibition of human KE-37 cell growth in a cell viability assay.

KINGS-1 = assay type: functional, cell-based, Homo sapiens; settings: Homo sapiens, KINGS-1;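 further: cell viability assay measuring suppression of KINGS-1 cell growth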
Description: SANGER: Inhibition of human KINGS-1 cell growth in a cell viability assay.

PSN1 = assay type: functional, cell-based, Homo sapiens; settings: Homo sapiens, PSN1;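 further: suppression of growth of human PSN1 cells, read out by a cell viability assay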
Description: SANGER: Inhibition of human PSN1 cell growth in a cell viability assay.

NTERA-2-cl-D1 = assay type: functional, cell-based, Homo sapiens; settings: Homo sapiens, NTERA-2-cl-D1;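 further: inhibition of cell growth, measured with a cell viability assay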
Description: SANGER: Inhibition of human NTERA-S-cl-D1 cell growth in a cell viability assay.

KGN = assay type: functional, cell-based, Homo sapiens; settings: Homo sapiens, KGN;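 further: growth inhibition of KGN cells, read out with a cell viability assay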
Description: SANGER: Inhibition of human KGN cell growth in a cell viability assay.

KU812 cell line = assay type: functional, cell-based, Homo sapiens; settings: Homo sapiens, KU812;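 further: growth inhibition of KU812 cells, read out with a cell viability assay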
Description: SANGER: Inhibition of human KU812 cell growth in a cell viability assay.

KARPAS-299 = assay type: functional, cell-based, Homo sapiens; settings: Homo sapiens, KARPAS-299
Description: SANGER: Inhibition of human KARPAS-299 cell growth in a cell viability assay.

CCCCCCCCCCCC1=C(O)C(=O)C=C(O)C1=O [EMBELIN]
IC50 (HCC2157): > 32 µM | IC50 (Ramos-2G6-4C10): 17 µM | IC50 (CCRF-CEM): 3.02 µM | IC50 (NOMO-1): 12.3 µM | IC50 (NOS-1): 4.67 µM | IC50 (ES6): 9.55 µM | IC50 (SNU1): > 32 µM | IC50 (LOX IMVI): 17.5 µM | IC50 (TE-9): 8.5 µM | IC50 (QIMR-WIL): 5.29 µM | IC50 (KLE): 24 µM | IC50 (OS-RC-2): 9.34 µM | IC50 (Mo): > 32 µM | IC50 (TE-11): > 32 µM | IC50 (ES7): 6.6 µM | IC50 (ES5): > 32 µM | IC50 (GB-1): 5.23 µM | IC50 (BV-173): > 32 µM | IC50 (NCI-H747): 14.3 µM | IC50 (8-MG-BA): 3.53 µM | IC50 (MHH-NB-11): > 32 µM | IC50 (D-263MG): > 32 µM | IC50 (DSH1): > 32 µM | IC50 (LS-513): > 32 µM | IC50 (EW-13): 9.67 µM | IC50 (NCI-H1650): 20.8 µM | IC50 (JVM-3): > 32 µM | IC50 (SW872): 16.2 µM | IC50 (HH): > 32 µM | IC50 (JVM-2): > 32 µM | IC50 (SF-539): 15.4 µM | IC50 (LB996-RCC): 14.1 µM | IC50 (COLO-320-HSR): 17.1 µM | IC50 (ES8): 14 µM | IC50 (MEG-01): 25.5 µM | IC50 (ML-2): 12.4 µM | IC50 (HL-60): 8.85 µM | IC50 (TE-12): 14.4 µM | IC50 (LU-134-A): > 32 µM | IC50 (KG-1): > 32 µM | IC50 (MZ7-mel): 9.78 µM | IC50 (NCI-H226): 17.9 µM | IC50 (NH-12): 3.88 µM | IC50 (KE-37): 3.44 µM | IC50 (KINGS-1): > 32 µM | IC50 (PSN1): 5.41 µM | IC50 (NTERA-2-cl-D1): 1.6 µM | IC50 (KGN): 3.22 µM | IC50 (KU812 cell line): > 32 µM | IC50 (KARPAS-299): > 32 µM

NC1(c2ccc(-c3nc4ccn5c(=O)[nH]nc5c4cc3-c3ccccc3)cc2)CCC1 [MK-2206]
IC50 (HCC2157): 3.38 µM | IC50 (Ramos-2G6-4C10): 1.34 µM | IC50 (CCRF-CEM): > 4 µM | IC50 (NOMO-1): > 4 µM | IC50 (NOS-1): 0.637 µM | IC50 (ES6): > 4 µM | IC50 (SNU1): > 4 µM | IC50 (LOX IMVI): > 4 µM | IC50 (TE-9): > 4 µM | IC50 (QIMR-WIL): 1.49 µM | IC50 (KLE): > 4 µM | IC50 (OS-RC-2): 3.11 µM | IC50 (Mo): > 4 µM | IC50 (TE-11): > 4 µM | IC50 (ES7): > 4 µM | IC50 (ES5): 0.345 µM | IC50 (GB-1): > 4 µM | IC50 (BV-173): 1.81 µM | IC50 (NCI-H747): 3.21 µM | IC50 (8-MG-BA): > 4 µM | IC50 (MHH-NB-11): > 4 µM | IC50 (D-263MG): > 4 µM | IC50 (DSH1): > 4 µM | IC50 (LS-513): 2.33 µM | IC50 (EW-13): > 4 µM | IC50 (NCI-H1650): > 4 µM | IC50 (JVM-3): > 4 µM | IC50 (SW872): > 4 µM | IC50 (HH): 0.303 µM | IC50 (JVM-2): > 4 µM | IC50 (SF-539): > 4 µM | IC50 (LB996-RCC): > 4 µM | IC50 (COLO-320-HSR): > 4 µM | IC50 (ES8): 2.49 µM | IC50 (MEG-01): > 4 µM | IC50 (ML-2): > 4 µM | IC50 (HL-60): > 4 µM | IC50 (TE-12): > 4 µM | IC50 (LU-134-A): 3.88 µM | IC50 (KG-1): > 4 µM | IC50 (MZ7-mel): > 4 µM | IC50 (NCI-H226): > 4 µM | IC50 (NH-12): > 4 µM | IC50 (KE-37): 0.583 µM | IC50 (KINGS-1): > 4 µM | IC50 (PSN1): > 4 µM | IC50 (NTERA-2-cl-D1): > 4 µM | IC50 (KGN): > 4 µM | IC50 (KU812 cell line): > 4 µM | IC50 (KARPAS-299): > 4 µM

COc1ccc(-c2cc3nccn3c(Nc3ncccc3C(N)=O)n2)cc1OC
IC50 (HCC2157): > 8 µM | IC50 (Ramos-2G6-4C10): 2.95 µM | IC50 (CCRF-CEM): 1.98 µM | IC50 (NOMO-1): 7.38 µM | IC50 (NOS-1): 0.481 µM | IC50 (ES6): 1.24 µM | IC50 (SNU1): 1.99 µM | IC50 (LOX IMVI): 2.66 µM | IC50 (TE-9): > 8 µM | IC50 (QIMR-WIL): 0.582 µM | IC50 (KLE): > 8 µM | IC50 (OS-RC-2): 1.17 µM | IC50 (Mo): 4.96 µM | IC50 (TE-11): > 8 µM | IC50 (ES7): 1.09 µM | IC50 (ES5): > 8 µM | IC50 (GB-1): 2.83 µM | IC50 (BV-173): > 8 µM | IC50 (NCI-H747): > 8 µM | IC50 (8-MG-BA): > 8 µM | IC50 (MHH-NB-11): > 8 µM | IC50 (D-263MG): > 8 µM | IC50 (DSH1): > 8 µM | IC50 (LS-513): > 8 µM | IC50 (EW-13): 1.47 µM | IC50 (NCI-H1650): > 8 µM | IC50 (JVM-3): > 8 µM | IC50 (SW872): 1.18 µM | IC50 (HH): > 8 µM | IC50 (JVM-2): > 8 µM | IC50 (SF-539): > 8 µM | IC50 (LB996-RCC): 1.7 µM | IC50 (COLO-320-HSR): 2.9 µM | IC50 (ES8): 5.98 µM | IC50 (MEG-01): 5.28 µM | IC50 (ML-2): > 8 µM | IC50 (HL-60): > 8 µM | IC50 (TE-12): 0.531 µM | IC50 (LU-134-A): 4.32 µM | IC50 (KG-1): 2.87 µM | IC50 (MZ7-mel): > 8 µM | IC50 (NCI-H226): 4.03 µM | IC50 (NH-12): 2.49 µM | IC50 (KE-37): 0.835 µM | IC50 (KINGS-1): > 8 µM | IC50 (PSN1): 0.897 µM | IC50 (NTERA-2-cl-D1): 1.96 µM | IC50 (KGN): 1.54 µM | IC50 (KU812 cell line): 4.24 µM | IC50 (KARPAS-299): > 8 µM
